Patent publication EP0931078B1, “NOVEL TRICYCLIC PIPERIDINYL COMPOUNDS USEFUL AS INHIBITORS OF FARNESYL-PROTEIN TRANSFERASE” (SCHERING CORPORATION, priority 1996, dated 1998)
pIC50: −log10 of the molar value. Where two headings read alike, the source gives them in different places. One block for each compound: values may come before it.

Molecular target: T1, partially purified rat brain famesyl protein transferase (FPT) (Rattus norvegicus, UniProt Q02293+Q04631)
T1 construct: partially purified rat brain famesyl protein transferase (FPT); from tissue; host or cells: rat brain
T1 sequence (Q02293 whole entry, one chain of several): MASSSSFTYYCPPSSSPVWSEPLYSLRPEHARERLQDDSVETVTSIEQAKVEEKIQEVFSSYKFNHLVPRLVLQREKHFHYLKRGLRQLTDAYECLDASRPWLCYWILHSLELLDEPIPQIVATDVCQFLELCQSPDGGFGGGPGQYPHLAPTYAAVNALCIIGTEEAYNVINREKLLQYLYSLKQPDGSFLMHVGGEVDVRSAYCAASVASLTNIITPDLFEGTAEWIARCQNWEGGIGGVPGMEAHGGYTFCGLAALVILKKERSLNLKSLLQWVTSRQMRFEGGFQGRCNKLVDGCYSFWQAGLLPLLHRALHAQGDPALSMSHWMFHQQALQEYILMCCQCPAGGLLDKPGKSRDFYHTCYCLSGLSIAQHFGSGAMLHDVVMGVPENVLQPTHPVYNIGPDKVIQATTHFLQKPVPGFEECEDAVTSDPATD
Assay: In vitro enzyme assay: inhibition of Ras-CVLS farnesylation by farnesyl protein transferase (FPT)
Assay type: biochemical
Experimental: • 1. In vitro enzyme assays: FPT IC50 (inhibition of famesyl protein transferase, in vitro enzyme assay) are determined by the methods disclosed in […] or WO 95/10516. […] Cell-based assay. COS IC50 values refer to the COS cells activity inhibition of Ras processing, are determined by the methods disclosed in […] or WO 95/10516.

Compound: O=C(NCCc1ccccn1)C1CCN(C2c3ccc(Cl)cc3CCc3cc(Br)cnc32)CC1 (racemic) [Example 6, 1-(3-Bromo-8-chloro-6,11-dihydro-5H-benzo[5,6]cyclohepta[1,2-b]pyridin-11-yl)-N-(2-pyridiriylethyl)-4-piperidinecarboxamide]
inhibition at 1.1 µM (read-out: FPT Inhibition): 9%

inhibition at 0.36 µM (@ 0.36 µM): 15%
Compound: NC(=O)N1CCC(NC(=O)C2CCN(C3c4ccc(Cl)cc4CCc4cc(Br)cnc43)CC2)CC1 (racemic) [Example 7, 1-(3-Bromo-8-chloro-6,11-dihydro-5H-benzo[5,6]cyclohepta[1,2-b]pyridin-11-yl)-N-[4-(N-carboxamidopiperidinyl)]-4-piperidinecarboxamide]

inhibition at 1.04 µM (@ 1.04 µM): 41%
Compound: NC(=O)N1CCC(CNC(=O)C2CCN(C3c4ccc(Cl)cc4CCc4cc(Br)cnc43)CC2)CC1 (racemic) [Example 8, 1-(3-Bromo-8-chloro-6,11-dihydro-5H-benzo[5,6]cyclohepta[1,2-b]pyridin-11-yl)-N-[4-(N-carboxamidopiperidinyl)methyl]-4-piperidinecarboxamide]

inhibition at 0.38 µM (@ 0.38 µM, read-out: FPT Inhibition): 16%
Compound: NCC1CCN(C(=O)C2CCN(C3c4ccc(Cl)cc4CCc4cc(Br)cnc43)CC2)CC1 (racemic) [Example 9 Step B]

Compound: O=C(NCc1cccnc1)C1CCCN(C2c3ccc(Cl)cc3CCc3cc(Br)cnc32)C1 (single isomer, unassigned) [Example 10 Isomer A, 1-(3-Bromo-8-chloro-6,11-dihydro-5H-benzo[5,6]cyclohepta[1,2-b]pyridin-11-yl)-N-(3-pyridinylmethyl)-3-piperidinecarboxamide]
inhibition at 1.14 µM (read-out: FPT Inhibition): 6.1%

Compound: O=C(NCc1cccnc1)C1CCCN(C2c3ccc(Cl)cc3CCc3cc(Br)cnc32)C1 (single isomer, unassigned) [Example 10 Isomer B, 1-(3-Bromo-8-chloro-6,11-dihydro-5H-benzo[5,6]cyclohepta[1,2-b]pyridin-11-yl)-N-(3-pyridinylmethyl)-3-piperidinecarboxamide]
pIC50: 6.71

Compound: O=C(NCc1cccnc1)C1CCCN(C2c3ccc(Cl)cc3CCc3cc(Br)cnc32)C1 (single isomer, unassigned) [Example 10 Isomer C, 1-(3-Bromo-8-chloro-6,11-dihydro-5H-benzo[5,6]cyclohepta[1,2-b]pyridin-11-yl)-N-(3-pyridinylmethyl)-3-piperidinecarboxamide]
pIC50: 6.75

Compound: O=C(NCc1cccnc1)C1CCCN(C2c3ccc(Cl)cc3CCc3cc(Br)cnc32)C1 (single isomer, unassigned) [Example 10 Isomer D, 1-(3-Bromo-8-chloro-6,11-dihydro-5H-benzo[5,6]cyclohepta[1,2-b]pyridin-11-yl)-N-(3-pyridinylmethyl)-3-piperidinecarboxamide]
pIC50: 6.73

inhibition at 1.1 µM (@ 1.1 µM, read-out: FPT Inhibition): 18%
Compound: O=C(NCc1ccncc1)[C@@H]1CCCCN1C1c2ccc(Cl)cc2CCc2cc(Br)cnc21 (single isomer, unassigned) [Example 12, 1-(3-Bromo-8-chloro-6,11-dihydro-5H-benzo[5,6]cyclohepta[1,2-b]pyridin-11-yl)-N-(4-pyridinylmethyl)-2S-piperidinecarboxamide]

FPT Inhibition (@ 1.1 µM): 21%
Compound: O=C(NCc1ccncc1)[C@@H]1CCCCN1C1c2ccc(Cl)cc2CCc2cc(Br)cnc21 (single isomer, unassigned) [Example 13, 1-(3-Bromo-8-chloro-6,11-dihydro-5H-benzo[5,6]cyclohepta[1,2-b]pyridin-11-yl)-N-(4-pyridinylmethyl)-2S-piperidinecarboxamide]

Compound: O=C(NCc1cccnc1)C1CCCN(C2c3ncc(Br)cc3CCc3cc(Cl)cc(Br)c32)C1 (single isomer, unassigned) [Example 17 Isomer A, 1-(3,10-Dibromo-8-chloro-6,11-dihydro-5H-benzo[5,6]cyclohepta[1,2-b]pyridin-11-yl)-N-(3-pyridinylmethyl)-3-piperidinecarboxamide]
pIC50: > 8.00
